# Test results reported in patent US20150125589A1, “TASTE-IMPROVING AGENT AND FOOD OR DRINK CONTAINING SAME” (NIPPON SUISAN KAISHA, LTD., priority 2011, published 2015).
# Legend:
# [1] = Evaluation method 2: quantitating improvement of unpleasant flavor of potassium chloride as K/Na ratio against standard solutions, chicken stock soup; conditions: for improvement effect against the unpleasant flavor of potassium chloride: glycoside or aglycone 25 ppm final in standard solution 8, FIG. 17
# Procedure: 1.32 g of Chinese soup stock granules (product name=“Marudori-gara Soup”, manufactured by Ajinomoto K.K., standard nutritional ingredients of 2.5 g of Chinese soup stock granules are shown in Table 1) was dissolved in 70 g of distilled water, and the mixture was filtered through filter paper (filter paper no. 2, manufactured by Advantec Toyo K.K.). Thereafter, 0.63 g of NaCl was added, and water was further added to obtain 100 g of chicken stock soup containing an equivalent of 1.26 percent table salt (Table 2, standard solution 1). The concentration of sodium chloride was decreased in a stepwise manner from the composition of the standard solution 1, and potassium chloride was added to produce multiple chicken stock soups (Table 2, standard solutions 2 to 8). The ratio of potassium chloride to sodium chloride ((potassium chloride concentration/sodium chloride concentration)×100(%), referred to hereinafter as “K/Na ratio”) was changed in standard solutions 1 to 8, and the intensity of the unpleasant flavor (i.e. bitterness, astringent taste, harsh taste, and bitter taste) characteristic of potassium chloride increased as the K/Na ratio value increased. The unpleasant flavor intensity increased in a stepwise manner for standard solutions 1 to 8. Intensity of this unpleasant flavor and detailed taste were evaluated by organoleptic evaluation by an expert panel, and results of evaluation were classified in three stages, i.e. initial taste, middle taste, and aftertaste.
# A desired concentration of test solution was added to one of the standard solutions of Table 2 to produce an evaluation solution. At this time, for a test sample containing sodium chloride or potassium chloride, the evaluation solution was adjusted such that the total sodium chloride concentration or total potassium chloride concentration of the evaluation solution was equivalent to the respective standard solution. The standard solutions 1 to 8 of Table 2 are indicated in order of potassium chloride concentration. These evaluation solutions were compared to the standard solution, and the corresponding unpleasant flavor of potassium chloride was expressed as a K/Na ratio. The improvement effect was indicated as higher as the ratio of K/Na ratio obtained by evaluation to actual K/Na ratio decreased.
# [2] = Evaluation method 1: expert panel ranking of potassium chloride unpleasant flavor intensity (normalized rank method), chicken stock soup; conditions: for effect of phospholipid for improvement of unpleasant flavor of potassium chloride: phospholipid 0.02 percent in standard solution 8, FIG. 21
# [3] = Unpleasant taste distinguishable concentration of potassium chloride, blind ranking by panel; conditions: chicken stock soup models, panel n=11; FIG. 28
# Procedure: 1.32 g of Chinese soup stock granules (product name=“Marudori-gara Soup”, manufactured by Ajinomoto K.K., standard nutritional ingredients of 2.5 g of Chinese soup stock granules are shown in Table 1) was dissolved in 70 g of distilled water, and the mixture was filtered through filter paper (filter paper no. 2, manufactured by Advantec Toyo K.K.). Thereafter, 0.63 g of NaCl was added, and water was further added to obtain 100 g of chicken stock soup containing an equivalent of 1.26 percent table salt (Table 2, standard solution 1). The concentration of sodium chloride was decreased in a stepwise manner from the composition of the standard solution 1, and potassium chloride was added to produce multiple chicken stock soups (Table 2, standard solutions 2 to 8). […] Intensity of this unpleasant flavor and detailed taste were evaluated by organoleptic evaluation by an expert panel, and results of evaluation were classified in three stages, i.e. initial taste, middle taste, and aftertaste.
# Standard solutions 1 to 7 (with the exception of standard solution 2) were evaluated by a panel (n=11) by blind-testing to determine the order of potassium chloride unpleasant flavor intensity.
Molecule,improvement effect against the unpleasant flavor of potassium chloride [1],effect of phospholipid for improvement of unpleasant flavor of potassium chloride [2],other results
"C[C@@H]1O[C@@H](O[C@H]2[C@H](Oc3cc(O)c4c(c3)O[C@H](c3ccc(O)cc3)CC4=O)O[C@H](CO)[C@@H](O)[C@@H]2O)[C@H](O)[C@H](O)[C@H]1O [naringin, Naringin, reference compound]",improvement effect was not found,,
"O=c1cc(-c2ccc(O)cc2)oc2cc(O[C@@H]3O[C@H](CO)[C@@H](O)[C@H](O)[C@H]3O)cc(O)c12 [apigenin 7-glucoside, Apigenin 7-glucoside]",high effect,,
Phosphatidylcholine [PC],,high effects,
Phosphatidylinositol [PI],,high effects,
Phosphatidylethanolamine [PE],,high effects,
"Phosphatidic acid [PA, reference compound]",,low,
Phosphatidylserine [PS],,high effects,
"O=c1cc(-c2ccc(O)cc2)oc2cc(O)cc(O)c12 [apigenin, Apigenin]",high effect,,
[Cl-].[K+] [potassium chloride],,,K/Na ratio at which unpleasant flavor of potassium chloride was not generally recognized [3]: less than or equal to 57%
"O=c1c(-c2ccc(O)cc2)coc2cc(O[C@@H]3O[C@H](CO)[C@@H](O)[C@H](O)[C@H]3O)ccc12 [daidzin, Daidzin]",high effect,,
"O=c1cc(-c2ccc(O)cc2)oc2cc(O[C@@H]3O[C@H](CO)[C@@H](O)[C@H](O)[C@H]3O[C@@H]3OC[C@](O)(CO)[C@H]3O)cc(O)c12 [fraction 13, apiin]",particularly high effect,,"unpleasant flavor improvement effect of parsley extract fraction relative to its parent solution ([2]; fraction aqueous solution added at 15 percent by weight to standard solution 8, FIG. 12-15): equivalent to that of the evaluation solution 9; added amount at which near maximum unpleasant flavor improvement effect was reached ([1]; 25, 50, 125, 250 ppm in standard solution 8, FIG. 16): ≥ 125 ppm"
